For assay [1], the system named is Locomotor Activity in Mice. The assay can be described thus: Inhibition of locomotor activity in mice. It counts as in vivo. Particulars: for ED50: Mus musculus. The procedure: (§1) The compounds of Formula I are valuable dopaminergic agents. […] Thus, the compounds of Formula I were tested for their ability to inhibit locomotor activity in mice and rats, a measure of antipsychotic activity, according to the assay described by J. R. McLean, et al, Pharmacology, Biochemistry and Behavior, Vol. 8, pages 97-99 (1978); for their ability to bind to dopamine receptors as measured by their inhibition of [^3 H]spiroperidol binding in a receptor assay described by D. Grigoriadis and P. Seeman, Journal of Neurochemistry, Vol. 44, pages 1925-1935 (1985); and for their ability to effect dopamine synthesis in rats according to the protocol described by J. R. Walters and R. H. Roth, Naunyn-Schmiedebero's Archives of Pharmacology, Vol. 296, pages 5-14 (1976). The above test methods are incorporated herein by reference. The data in the table show the dopaminergic activity of representative compounds of Formula I.

Assay [2] has as its system Locomotor Activity in Rats. Kind of assay: Inhibition of locomotor activity in rats (oral). Type of assay: in vivo. As to the method:
(§2) Thus, the compounds of Formula I were tested for their ability to inhibit locomotor activity in mice and rats, a measure of antipsychotic activity, according to the assay described by J. R. McLean, et al, Pharmacology, Biochemistry and Behavior, Vol. 8, pages 97-99 (1978); for their ability to bind to dopamine receptors as measured by their inhibition of [^3 H]spiroperidol binding in a receptor assay described by D. Grigoriadis and P. Seeman, Journal of Neurochemistry, Vol. 44, pages 1925-1935 (1985); and for their ability to effect dopamine synthesis in rats according to the protocol described by J. R. Walters and R. H. Roth, Naunyn-Schmiedebero's Archives of Pharmacology, Vol. 296, pages 5-14 (1976). The above test methods are incorporated herein by reference.
(§3) The most important test is the locomotor activity orally in the rat as this corresponds most closely to human oral administration of an antipsychotic compound.

The test system of another assay is Brain Dopamine Synthesis. The assay can be described thus: % effects on brain dopamine synthesis in rats. Type of assay: in vivo. Conditions: for change in vivo at 10 mg/kg: Rattus norvegicus. As to the method: as §1
For assay [3], the system named is dopamine receptors. Kind of assay: Comparison of 1,3 versus 1,4 series activity (binding and locomotor activity), results in words. Conditions: Table 2. As to the method:
as §2, §3

In assay [4] the target is dopamine receptors. Kind of assay: Inhibition of [^3 H] spiroperidol binding. As to the method: as §1
Where [5] appears, read: ip, read-out: Inhibition of Locomotor Activity in Mice ED50, mice, IP (Table 1).
Where [6] appears, read: ip, read-out: % Effects on Brain Dopamine Synthesis in Rats, rats, 10 mg/kg, IP (Table 1).
The mark [7] stands for this setting: mice, IP (Table 2), read-out: Inhibition of Locomotor Activity in Mice ED50.
[8] abbreviates: mice, IP (Table 1), read-out: Inhibition of Locomotor Activity in Mice ED50.
Setting [9] is: rats, 10 mg/kg, IP (Table 1), read-out: % Effects on Brain Dopamine Synthesis in Rats.

pIC50: −log10 of the molar value. Like-named read-outs stand apart in the source and are kept apart here.

Consider `C1=C(c2ccccc2)CCN(CC2CCC=C(c3ccccc3)C2)C1` (racemic) [Example 1, (±)-1,2,3,6-Tetrahydro-4-phenyl-1-[(3-phenyl-3-cyclohexen-1-yl)methyl]pyridine], for which the ED50 (usually the midpoint of the dose-response relation) is 1.6 mg/kg in assay [1] (setting [5]) and 1.6 mg/kg in assay [1] (ip, read-out: Inhibition of Locomotor Activity in Mice ED50, mice, IP (Table 2)). The “locomotor activity orally in the rat” value in assay [2] (Table 2 compounds) was “clearly the most potent”. The “times more active than the 1,4 Compound C, locomotor activity orally in the rat” value in assay [2] (versus Compound C) was determined as 4.8 times. Also, in the assay with Brain Dopamine Synthesis (setting [6]), the change in vivo at 10 mg/kg is -86%. Moreover, the “binding and locomotor activity” value with dopamine receptors [3] is “surprisingly much more active in its binding and locomotor activity”. Also, the pIC50 at dopamine receptors [4] (Table 1) and on dopamine receptors [4] (Table 2) was 7.14 each time.

Consider `C1=C(c2ccccc2)CC(N2CCN(c3ccccn3)CC2)CC1` (racemic) [Compound J, (±)-1-(3-phenyl-3-cyclohexen-1-yl)-4-(2-pyridinyl)piperazine, reference compound], for which the 50% effective dose (ED50) in assay [1] (setting [7]) was determined as 28.2 mg/kg. The “binding and locomotor activity” value with dopamine receptors [3] was “essentially inactive”. Moreover, on dopamine receptors [4] (Table 2), the pIC50 (commonly the negative decadic logarithm of the IC50, by convention in mol/L) is 5.01.

With `C1=C(c2ccccc2)CCC(CCN2CCN(c3ccccn3)CC2)C1` (racemic) [H, (±)-1-[(4-phenyl-3-cyclohexen-1-yl)ethyl]-4-(2-pyridinyl)piperazine, reference compound], the ED50 in assay [1] (setting [7]) was determined as 1.1 mg/kg. Moreover, the “binding and locomotor activity” value with dopamine receptors [3] was “much more active than Compound G”. For the same molecule, the pIC50 at dopamine receptors [4] (Table 2) was 6.39.

As to `C1=C(c2ccccc2)CCC(N2CCN(c3ccccn3)CC2)C1` (racemic) [F, (±)-1-(4-phenyl-3-cyclohexen-1-yl)-4-(2-pyridinyl)piperazine, reference compound], the ED50 in assay [1] (setting [7]) amounted to 1.01 mg/kg. The “binding and locomotor activity” value in the assay with dopamine receptors [3] is given as “much more active than Compound G”. The pIC50 at dopamine receptors [4] (Table 2) was 6.22.

Regarding `C1=C(c2ccccc2)CC(CN2CCN(c3ccccn3)CC2)CC1` (racemic) [Example 4, (±)-1-[(3-phenyl-3-cyclohexen-1-yl)methyl]-4-(2-pyridinyl)piperazine], in assay [1] (setting [8]), the ED50 turned out to be 0.85 mg/kg. Moreover, the change in vivo at 10 mg/kg in the assay with Brain Dopamine Synthesis (setting [9]) was -61%. Further, the “binding and locomotor activity” value with dopamine receptors [3] is given as “very potent”. Besides, the pIC50 at dopamine receptors [4] (Table 1) and on dopamine receptors [4] (Table 2) was 6.85 each time.

For the molecule `CN(C)c1ccc(C2=CCC[C@@H](CN3CC=C(c4ccccc4)CC3)C2)cc1` [Example 16, (R)-4-[5-[(3,6-dihydro-4-phenyl-1(2H)-pyridinyl)methyl]-1-cyclohexen-1-yl]-N,N-dimethylbenzeneamine], in assay [1] (setting [5]), the ED50 turned out to be 0.2 mg/kg. The change in vivo at 10 mg/kg with Brain Dopamine Synthesis (setting [6]) is -76%. The molecule further gave a pIC50 at dopamine receptors [4] (Table 1) of 7.28.

Regarding `Fc1ccc(C2=CCC[C@@H](CN3CC=C(c4ccccc4)CC3)C2)cc1` [Example 8, (R)-1-[[3-(4-fluorophenyl)-3-cyclohexen-1-yl]methyl]-1,2,3,6-tetrahydro-4-phenylpyridine], the ED50 in assay [1] (setting [5]) was 4 mg/kg. In addition, the change in vivo at 10 mg/kg with Brain Dopamine Synthesis (setting [6]) is -74%. On dopamine receptors [4] (Table 1), this molecule had a pIC50 of 7.12.

In the case of `O=C(N[C@H]1CCC[C@@H](CN2CC=C(c3ccccc3)CC2)C1)c1ccccc1` [Example 19, (1S-cis)-N-[3-[(3,6-dihydro-4-phenyl-1(2H)-pyridinyl)methyl]cyclohexyl]benzamide], the ED50 in assay [1] (setting [5]) was found to be 0.15 mg/kg. Further, the change in vivo at 10 mg/kg in the assay on Brain Dopamine Synthesis (setting [6]) was -95%. The molecule further had a pIC50 on dopamine receptors [4] (Table 1) of 7.47.

Regarding `C1=C(c2ccccc2)CCN(CC2CCC=C(c3ccccc3)C2)C1` (single isomer, unassigned; (-)) [Example 6a, (-)-1,2,3,6-Tetrahydro-4-phenyl-1-[(3-phenyl-3-cyclohexen-1-yl)methyl]pyridine], in assay [1] (mice, IP (Table 1)), the “Inhibition of Locomotor Activity in Mice ED50” value is reported as 5.6 mg/kg. The “% Effects on Brain Dopamine Synthesis in Rats” value in the assay on Brain Dopamine Synthesis (rats, 10 mg/kg, IP (Table 1)) is on record as -34%. The molecule also gave a pIC50 at dopamine receptors [4] (Table 1) of 6.38.

Take `C1=C(c2ccccc2)CCN(C[C@@H]2CCC=C(c3cnc4ccccc4c3)C2)C1` [Example 17, (R)-3-[5-[(3,6-dihydro-4-phenyl-1(2H)-pyridinyl)methyl]-1-cyclohexen-1-yl]quinoline]: the ED50 in assay [1] (setting [5]) is 0.23 mg/kg. Also, the change in vivo at 10 mg/kg in the assay on Brain Dopamine Synthesis (setting [6]) is -21%. Moreover, the pIC50 on dopamine receptors [4] (Table 1) was 7.12.

As for `C1=C(c2ccccc2)CCCC1CN1CC=C(c2ccccc2)CC1` (racemic) [Example 1a, (±)-1,2,3,6-Tetrahydro-4-phenyl-1-[(3-phenyl-2-cyclohexen-1-yl)methyl]pyridine], the median effective dose (ED50) in assay [1] (setting [5]) worked out at 2.5 mg/kg. The change in vivo at 10 mg/kg with Brain Dopamine Synthesis (setting [6]) was -34%. The molecule also had a pIC50 at dopamine receptors [4] (Table 1) of 6.38.

`C1=C(c2ccccc2)CCN(C[C@@H]2CCC[C@H](c3ccccc3)C2)C1.Cl` [Example 20, (1R-cis) 1,2,3,6-tetrahydro-4-phenyl-1-[(3-phenylcyclohexyl)methyl]pyridine monohydrochloride]: in assay [1] (setting [5]), the ED50 was 0.7 mg/kg. In addition, in the assay with Brain Dopamine Synthesis (setting [6]), the change in vivo at 10 mg/kg is -100%. In addition, the pIC50 on dopamine receptors [4] (Table 1) was 7.15.

`Fc1ccc(C2=CC(CN3CCN(c4ccccn4)CC3)CCC2)cc1` (racemic) [Example 5a, (±)-1-[[3-(4-Fluorophenyl)-2-cyclohexen-1-yl]methyl]-4-(2-pyridinyl)piperazine]: in assay [1] (setting [8]), the ED50 stood at 2.2 mg/kg. For the same molecule, in the assay on Brain Dopamine Synthesis (setting [9]), the change in vivo at 10 mg/kg is -48%. In addition, the pIC50 at dopamine receptors [4] (Table 1) was 6.55.

`Fc1ccc(C2=CC(CN3CC=C(c4ccccc4)CC3)CCC2)cc1` (racemic) [Example 3a, (±)-1-[[3-(4-Fluorophenyl)-2-cyclohexen-1-yl]methyl]-1,2,3,6-tetrahydro-4-phenylpyridine]: in assay [1] (setting [5]), the ED50 worked out at 2.9 mg/kg. In addition, the change in vivo at 10 mg/kg with Brain Dopamine Synthesis (setting [6]) was -41%. In addition, the pIC50 at dopamine receptors [4] (Table 1) was 5.97.

For `C1=C(c2ccccc2)CCN(C[C@@H]2CCC=C(c3cccs3)C2)C1.Cl` [Example 10, (R)-1,2,3,6-tetrahydro-4-phenyl-1-[[3-(2-thienyl)-3-cyclohexen-1-yl]methyl]pyridine monohydrochloride], in assay [1] (setting [5]), the median effective dose (ED50) was determined as 1.6 mg/kg. In addition, in the assay with Brain Dopamine Synthesis (setting [6]), the change in vivo at 10 mg/kg is -54%. Further, the pIC50 on dopamine receptors [4] (Table 1) was 7.10.

For `COc1ccc(C2=CCC[C@@H](CN3CC=C(c4ccccc4)CC3)C2)cc1.Cl` [Example 11, (R)-1,2,3,6-tetrahydro-1-[[3-(4-methoxyphenyl)-3-cyclohexen-1-yl]methyl]-4-phenylpyridine monohydrochloride], in assay [1] (setting [5]), the ED50 came out at 0.37 mg/kg. Moreover, the change in vivo at 10 mg/kg with Brain Dopamine Synthesis (setting [6]) is -47%. This molecule gave a negative logarithm of the IC50 (pIC50) on dopamine receptors [4] (Table 1) of 7.00.

With `C1=C(c2ccccc2)CCN(CC2CCC=C(c3ccccc3)C2)C1` (single isomer, unassigned; (+)) [Example 6, (+)-1,2,3,6-Tetrahydro-4-phenyl-1-[(3-phenyl-3-cyclohexen-1-yl)methyl]pyridine], the “Inhibition of Locomotor Activity in Mice ED50” value in assay [1] (mice, IP (Table 1)) is 1.0 mg/kg. In addition, the “% Effects on Brain Dopamine Synthesis in Rats” value in the assay with Brain Dopamine Synthesis (rats, 10 mg/kg, IP (Table 1)) is -50%. Also, on dopamine receptors [4] (Table 1), the pIC50 was 6.64.

Consider `C1=C(c2ccccc2)CCN(C[C@@H]2CCC=C(c3cccnc3)C2)C1.Cl` [Example 12, (R)-3-[5-[(3,6-dihydro-4-phenyl-1(2H)-pyridinyl)methyl]-1-cyclohexen-1-yl]pyridine monohydrochloride], for which, in assay [1] (setting [5]), the ED50 was found to be 0.01 mg/kg. For the same molecule, in the assay on Brain Dopamine Synthesis (setting [6]), the change in vivo at 10 mg/kg was -85%. The same molecule had a pIC50 on dopamine receptors [4] (Table 1) of 7.09.

For `C1=C(c2ccccc2)CC(CN2CCN(c3ccccn3)CC2)C1` (racemic) [Example 25, (±)-1-[(3-phenyl-3-cyclopenten-1-yl)methyl]-4-(2-pyridinyl)piperazine], the 50% effective dose (ED50) in assay [1] (setting [8]) is 2.7 mg/kg. Also, the change in vivo at 10 mg/kg with Brain Dopamine Synthesis (setting [9]) was -45%. Moreover, the pIC50 at dopamine receptors [4] (Table 1) is 6.72.
